Measured values from PubChem BioAssay (NCI).
Values joined by “and” are separate entries in the source; they are usually repeats but may differ in a detail not shown here. Equal values may be shown once.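 Where inhibition never reached the appropriate level, the endpoint shown equals the highest concentration tested. Otherwise, values were interpolated linearly from a five-concentration, 48-hour dose response in 96-well plates. At the GI50, growth is halved. TGI is the concentration that stops growth completely.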

How the values were obtained:
Assay in all cases: NCI anticancer screen, dose series, 48 h
A498 renal = system: A498 renal
ACHN renal = system: ACHN renal
COLO 205 colon = system: COLO 205 colon
HCT-116 colon = system: HCT-116 colon
HL-60(TB) leukemia = system: HL-60(TB) leukemia
IGROV1 ovarian = system: IGROV1 ovarian
MDA-MB-231 breast = system: MDA-MB-231 breast
NCI-H522 lung = system: NCI-H522 lung
OVCAR-5 ovarian = system: OVCAR-5 ovarian
SN12C renal = system: SN12C renal

SMILES | GI50 (A498 renal) | TGI (A498 renal) | GI50 (ACHN renal) | TGI (ACHN renal) | GI50 (COLO 205 colon) | TGI (COLO 205 colon) | GI50 (HCT-116 colon) | TGI (HCT-116 colon) | GI50 (HL-60(TB) leukemia) | TGI (HL-60(TB) leukemia) | GI50 (IGROV1 ovarian) | TGI (IGROV1 ovarian) | GI50 (MDA-MB-231 breast) | TGI (MDA-MB-231 breast) | GI50 (NCI-H522 lung) | TGI (NCI-H522 lung) | GI50 (OVCAR-5 ovarian) | TGI (OVCAR-5 ovarian) | GI50 (SN12C renal) | TGI (SN12C renal)
Oc1ccc(Cl)cc1CNc1nc2ccccc2[nH]1 | 0.141 µM | 18.2 µM | 13.8 µM | 35.8 µM | 16.8 µM | 32.9 µM | 12.1 µM | 24.7 µM | 19.8 µM | > 100 µM | 18.3 µM | 41.3 µM | 8.31 µM | 22.4 µM | 11.9 µM | 27.7 µM | 17.8 µM | 34.4 µM | 13.7 µM | 29.4 µM
Cc1nc(Nc2nc3ccccc3o2)nc(-c2cccc([N+](=O)[O-])c2)c1C(=O)Nc1ccc(F)c(Cl)c1 | 0.853 µM | 3.5 µM | 2.42 µM | 81.7 µM | 1.78 µM | 3.4 µM | 1.98 µM | > 100 µM | 2.15 µM | 5.29 µM | 2.94 µM | > 100 µM | 1.88 µM | 4.82 µM | 1.39 µM | 5.71 µM | 3.8 µM | > 100 µM | 2.64 µM | 20.1 µM
CSc1cccc(NC(=O)OC2CCCCCCCCCCC2)c1 |  | 62.3 µM |  | > 100 µM |  | 28.3 µM |  | 38.9 µM |  | 35.1 µM |  | > 100 µM |  | 66.8 µM |  | 37.1 µM |  | > 100 µM |  | 33.2 µM
[Cl][Cd][Cl] | 14 µM | 32.9 µM | 77.7 µM | 162 µM | > 46.7 µM and 12.9 µM | > 69.2 µM and 36.3 µM | 40.3 µM and 48.3 µM | 117 µM | 39.4 µM and 18.6 µM | > 84.5 µM and 118 µM | 4.32 µM and 29.7 µM and 8.4 µM | > 60.6 µM and 16.1 µM | 16.5 µM | 53.9 µM | 0.32 µM and 1.39 µM and 0.349 µM | 3.65 µM and 1.55 µM | > 61.9 µM and 99.2 µM | 98.4 µM and 179 µM | > 69 µM and 53 µM | 158 µM
C=C1c2c(Cl)ccc(O)c2C(O)=C2C(=O)[C@]3(O)C(O)=C(C(N)=O)C(=O)[C@@H](N(C)C)[C@@H]3[C@@H](O)[C@H]12 | 0.663 µM | 4.09 µM | 1.37 µM | > 50 µM | 1.11 µM | 3.02 µM | 0.97 µM | 3.22 µM | 1.22 µM | 3.57 µM | 1.03 µM | 5.22 µM | 1.07 µM | 2.93 µM | 1.01 µM | 3.06 µM | 2.09 µM | 25.4 µM | 1.38 µM | 12.4 µM
COc1cc2c(c(OC3OC(CO)C(O)C(O)C3O)c1)C(=O)CC(c1ccc(O)cc1)O2 (stereo not drawn) |  | > 100 µM |  | > 100 µM |  | > 100 µM |  | > 100 µM |  | > 100 µM |  | > 100 µM |  | > 100 µM |  | > 100 µM |  | > 100 µM |  | > 100 µM
CN(C)CCN1C(=O)c2cccc3cccc(c23)C1=O | 13.4 µM | > 25 µM | 8.29 µM | > 25 µM | 7.04 µM | > 25 µM | 9.57 µM | > 25 µM | 6.82 µM | > 25 µM |  |  | > 25 µM | > 25 µM | 15.1 µM | > 25 µM | 18.1 µM | > 25 µM | 12.7 µM | > 25 µM
